Source: paper PMC12216609, “Inhibitors of eIF1A-ribosome interaction unveil uORF-dependent regulation of translation initiation and antitumor and antiviral effects” (The EMBO Journal, 2025)
Several values for one entry are separate records, joined by “and”; a condition that tells them apart may be missing. Identical values can stand only once. Like-named read-outs stand apart in the source and are kept apart here.

Experiments:
eIF1A without NTT = target: T1, eIF1A without NTT (Homo sapiens, UniProt P47813); assay: Fluorescence binding assay with NTT-truncated eIF1A; conditions: for fluorescence ratio, eIF1A Δ NTT: background-corrected, relative to DMSO or lowest 1Ai concentration, replicate columns
T1 construct: His-bdSUMO (cleaved yes); made in house; host or cells: E. coli (BL-21)
T1 sequence (P47813 31-144 limits assumed): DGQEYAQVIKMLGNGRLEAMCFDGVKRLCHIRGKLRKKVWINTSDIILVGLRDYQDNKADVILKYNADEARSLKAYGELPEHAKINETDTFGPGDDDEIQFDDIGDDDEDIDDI

eIF1A = target: T2, eIF1A (Homo sapiens, UniProt P47813); type: binding; conditions: for fluorescence ratio, eIF1A: background-corrected, relative to DMSO or lowest 1Ai concentration, replicate columns
T2 construct: His-bdSUMO (cleaved yes); made in house; host or cells: E. coli BL-21
T2 sequence (P47813 whole entry): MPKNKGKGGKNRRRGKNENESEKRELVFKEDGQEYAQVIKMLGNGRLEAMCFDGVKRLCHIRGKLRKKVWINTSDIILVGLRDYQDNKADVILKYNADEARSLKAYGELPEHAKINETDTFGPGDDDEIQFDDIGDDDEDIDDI

eIF1A-RPS10 interaction = target: T3, eIF1A-RPS10 interaction (Homo sapiens, UniProt P46783+P47813); assay: Split-Renilla luciferase eIF1A-RPS10 interaction screen, dose-response; type: biochemical; conditions: summary table; read-out: IC50 concentration (µM), IC50 screen
T3 construct: made in house; host or cells: E. coli BL21 (PRSFduet); unpurified lysate supernatant
T3 sequence (P47813 whole entry, one chain of several): as the sequence (P47813 whole entry) above
In short: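 eIF1A (C-terminus fused to N-terminal Renilla fragment, N-terminal tail left free) and RPS10 fused to the C-terminal Renilla fragment were expressed in BL21 E. coli (0.5 mM IPTG, overnight at 16 °C). Clarified lysates in TKE buffer served as the source of reconstituted luciferase activity; loss of signal indicated disrupted interaction.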

NSP1 = NSP1 (Severe acute respiratory syndrome coronavirus 2, UniProt P0DTD1)
eIF1A without CTT = target: T4, eIF1A without CTT (Homo sapiens, UniProt P47813); type: binding; conditions: for fluorescence ratio, eIF1A Δ CTT: background-corrected, relative to DMSO or lowest 1Ai concentration, replicate columns
T4 construct: His-bdSUMO (cleaved yes); made in house; host or cells: E. coli (BL-21)
T4 sequence (P47813 1-114 limits assumed): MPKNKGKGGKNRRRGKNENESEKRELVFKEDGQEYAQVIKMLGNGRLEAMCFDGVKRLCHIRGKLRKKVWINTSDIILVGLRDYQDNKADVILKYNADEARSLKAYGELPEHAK

Q: Which results are given for `Cc1cc(-n2c(C)cc(-c3csc(N)n3)c2C)no1` [1Ai-6464]?
A: fluorescence ratio, eIF1A Δ NTT (eIF1A without NTT; 1Ai conc. 0.25 uM): 0.925 and 0.9309; fluorescence ratio, eIF1A Δ NTT (eIF1A without NTT; 1Ai conc. 0.5 uM): 1.072 and 0.9557; fluorescence ratio, eIF1A Δ NTT (eIF1A without NTT; 1Ai conc. 1 uM): 1.214 and 0.9982; fluorescence ratio, eIF1A Δ NTT (eIF1A without NTT; 1Ai conc. 2 uM): 1.067 and 1.004; fluorescence ratio, eIF1A Δ NTT (eIF1A without NTT; 1Ai conc. 4 uM): 1.128 and 0.9504; fluorescence ratio, eIF1A Δ NTT (eIF1A without NTT; 1Ai conc. 8 uM): 1.103 and 0.7642; fluorescence ratio, eIF1A Δ NTT (eIF1A without NTT; 1Ai conc. 16 uM): 0.8611 and 0.7181; fluorescence ratio, eIF1A Δ NTT (eIF1A without NTT; 1Ai conc. 32 uM): 0.7861 and 0.6206; fluorescence ratio, eIF1A Δ NTT (eIF1A without NTT; 1Ai conc. 64 uM): 0.6389 and 0.5018; fluorescence ratio, eIF1A Δ NTT (eIF1A without NTT; 1Ai conc. 256 uM): 0.4333 and 0.2642; IC50 (eIF1A without NTT; eIF1A Δ NTT, from the titration data, read-out: IC50 (eIF1A Δ NTT titration block)): 37 µM; IC50 (eIF1A without NTT; summary table, fluorescence binding assay, read-out: IC50 concentration (µM), NTT truncation): 37 µM; fluorescence ratio, eIF1A (eIF1A; 1Ai conc. 0.25 uM): 0.9721 and 0.9575; fluorescence ratio, eIF1A (eIF1A; 1Ai conc. 0.5 uM): 1.01 and 0.9713; fluorescence ratio, eIF1A (eIF1A; 1Ai conc. 1 uM): 0.9857; fluorescence ratio, eIF1A (eIF1A; 1Ai conc. 2 uM): 0.9155; fluorescence ratio, eIF1A (eIF1A; 1Ai conc. 4 uM): 0.9236 and 0.8848; fluorescence ratio, eIF1A (eIF1A; 1Ai conc. 8 uM): 0.5527 and 0.8172; fluorescence ratio, eIF1A (eIF1A; 1Ai conc. 16 uM): 0.5305 and 0.7368; fluorescence ratio, eIF1A (eIF1A; 1Ai conc. 32 uM): 0.4838 and 0.639; fluorescence ratio, eIF1A (eIF1A; 1Ai conc. 64 uM): 0.4268 and 0.4798; fluorescence ratio, eIF1A (eIF1A; 1Ai conc. 256 uM): 0.2524 and 0.2775; IC50 (eIF1A; eIF1A, from the titration data, read-out: IC50 (eIF1A titration block)): 21.2 µM; IC50 (eIF1A; summary table, fluorescence binding assay, read-out: IC50 concentration (µM), WT eIF1A): 21.2 µM; IC50 (eIF1A-RPS10 interaction): 13 µM; GFP reporter ratio nsp1/gfp, avg (NSP1): 0.5623; GFP reporter ratio nsp1/gfp, rep 1 (NSP1): 0.5623; gfp signal, mean of duplicate wells (NSP1): 2104; nsp1 signal, mean of duplicate wells (NSP1): 1183; ratio (nsp1/gfp) (NSP1): 0.562; fluorescence ratio, eIF1A Δ CTT (eIF1A without CTT; 1Ai conc. 0.25 uM): 0.827 and 0.948; fluorescence ratio, eIF1A Δ CTT (eIF1A without CTT; 1Ai conc. 0.5 uM): 0.8882 and 1.055; fluorescence ratio, eIF1A Δ CTT (eIF1A without CTT; 1Ai conc. 1 uM): 0.8515 and 1.0065; fluorescence ratio, eIF1A Δ CTT (eIF1A without CTT; 1Ai conc. 2 uM): 0.8637 and 0.9317; fluorescence ratio, eIF1A Δ CTT (eIF1A without CTT; 1Ai conc. 4 uM): 0.8683 and 0.9724; fluorescence ratio, eIF1A Δ CTT (eIF1A without CTT; 1Ai conc. 8 uM): 0.6692 and 0.7821; fluorescence ratio, eIF1A Δ CTT (eIF1A without CTT; 1Ai conc. 16 uM): 0.7305 and 0.6862; fluorescence ratio, eIF1A Δ CTT (eIF1A without CTT; 1Ai conc. 32 uM): 0.608 and 0.5594; fluorescence ratio, eIF1A Δ CTT (eIF1A without CTT; 1Ai conc. 64 uM): 0.4364 and 0.4829; fluorescence ratio, eIF1A Δ CTT (eIF1A without CTT; 1Ai conc. 256 uM): 0.1547 and 0.1772; IC50 (eIF1A without CTT; eIF1A Δ CTT, from the titration data, read-out: IC50 (eIF1A Δ CTT titration block)): 35.4 µM; IC50 (eIF1A without CTT; summary table, fluorescence binding assay, read-out: IC50 concentration (µM), CTT truncation): 35.4 µM

Q: Which results are given for `O=C(C=Cc1ccc(Cl)s1)Nc1cccc2ncccc12` [1Ai-4860]?
A: fluorescence ratio, eIF1A (eIF1A; 1Ai conc. 0.25 uM): 1.378 and 0.7463; fluorescence ratio, eIF1A (eIF1A; 1Ai conc. 0.5 uM): 1.41 and 0.8167; fluorescence ratio, eIF1A (eIF1A; 1Ai conc. 1 uM): 1.444 and 0.7972; fluorescence ratio, eIF1A (eIF1A; 1Ai conc. 2 uM): 1.487 and 1.19; fluorescence ratio, eIF1A (eIF1A; 1Ai conc. 4 uM): 1.443 and 1.135; fluorescence ratio, eIF1A (eIF1A; 1Ai conc. 8 uM): 0.951 and 1.007; fluorescence ratio, eIF1A (eIF1A; 1Ai conc. 16 uM): 1.0935 and 0.6993; fluorescence ratio, eIF1A (eIF1A; 1Ai conc. 32 uM): 1.055 and 0.7323; fluorescence ratio, eIF1A (eIF1A; 1Ai conc. 64 uM): 1.155 and 0.874; fluorescence ratio, eIF1A (eIF1A; 1Ai conc. 256 uM): 1.071 and 0.7793; WT eIF1A IC50 (eIF1A; fluorescence binding): No binding; IC50 concentration (µM), WT eIF1A (eIF1A; summary table, fluorescence binding assay): No binding; IC50 (eIF1A-RPS10 interaction): 23 µM; GFP reporter ratio nsp1/gfp, avg (NSP1): 0.4044; GFP reporter ratio nsp1/gfp, rep 1 (NSP1): 0.428; GFP reporter ratio nsp1/gfp, rep 2 (NSP1): 0.3807; gfp signal, mean of duplicate wells (NSP1): 2781.5 and 4263; nsp1 signal, mean of duplicate wells (NSP1): 1059 and 1824.5; ratio (nsp1/gfp) (NSP1): 0.381 and 0.428
